Results: ChEMBL document CHEMBL1143296, “Thienopyrimidine-based dual EGFR/ErbB-2 inhibitors” (Bioorg Med Chem Lett, 2009)

Assays:
HFF [1] = test: Antiproliferative activity against HFF after 72 hrs by CTG assay; settings: Homo sapiens
[2] = molecular target: Epidermal growth factor receptor (Homo sapiens, UniProt P00533)
[3] = molecular target: T1, Receptor tyrosine-protein kinase erbB-2 (Homo sapiens, UniProt P04626)
BT-474 [4] = test: Antiproliferative activity against human BT474 cells expressing ErbB2 after 72 hrs by CTG assay; settings: BT-474, 72 h
HN5 [5] = test: Antiproliferative activity against human HN5 cells expressing EGFR after 72 hrs by CTG assay; settings: HN5, 72 h
HFF [6] = test: Antiproliferative activity against HFF after 72 hrs by MEB assay; settings: Homo sapiens
BT-474 [7] = test: Antiproliferative activity against human BT474 cells expressing ErbB2 by MEB assay
[8] = molecular target: T1, Receptor tyrosine-protein kinase erbB-2; test: Inhibition of ErbB2 intracellular autophosphorylation of ErbB2 in human BT474 cells by DELFIA assay; assay type: cell-based, BT-474
HN5 [9] = test: Antiproliferative activity against human HN5 cells expressing EGFR by MEB assay

Epidermal growth factor receptor, sequence (P00533 whole entry): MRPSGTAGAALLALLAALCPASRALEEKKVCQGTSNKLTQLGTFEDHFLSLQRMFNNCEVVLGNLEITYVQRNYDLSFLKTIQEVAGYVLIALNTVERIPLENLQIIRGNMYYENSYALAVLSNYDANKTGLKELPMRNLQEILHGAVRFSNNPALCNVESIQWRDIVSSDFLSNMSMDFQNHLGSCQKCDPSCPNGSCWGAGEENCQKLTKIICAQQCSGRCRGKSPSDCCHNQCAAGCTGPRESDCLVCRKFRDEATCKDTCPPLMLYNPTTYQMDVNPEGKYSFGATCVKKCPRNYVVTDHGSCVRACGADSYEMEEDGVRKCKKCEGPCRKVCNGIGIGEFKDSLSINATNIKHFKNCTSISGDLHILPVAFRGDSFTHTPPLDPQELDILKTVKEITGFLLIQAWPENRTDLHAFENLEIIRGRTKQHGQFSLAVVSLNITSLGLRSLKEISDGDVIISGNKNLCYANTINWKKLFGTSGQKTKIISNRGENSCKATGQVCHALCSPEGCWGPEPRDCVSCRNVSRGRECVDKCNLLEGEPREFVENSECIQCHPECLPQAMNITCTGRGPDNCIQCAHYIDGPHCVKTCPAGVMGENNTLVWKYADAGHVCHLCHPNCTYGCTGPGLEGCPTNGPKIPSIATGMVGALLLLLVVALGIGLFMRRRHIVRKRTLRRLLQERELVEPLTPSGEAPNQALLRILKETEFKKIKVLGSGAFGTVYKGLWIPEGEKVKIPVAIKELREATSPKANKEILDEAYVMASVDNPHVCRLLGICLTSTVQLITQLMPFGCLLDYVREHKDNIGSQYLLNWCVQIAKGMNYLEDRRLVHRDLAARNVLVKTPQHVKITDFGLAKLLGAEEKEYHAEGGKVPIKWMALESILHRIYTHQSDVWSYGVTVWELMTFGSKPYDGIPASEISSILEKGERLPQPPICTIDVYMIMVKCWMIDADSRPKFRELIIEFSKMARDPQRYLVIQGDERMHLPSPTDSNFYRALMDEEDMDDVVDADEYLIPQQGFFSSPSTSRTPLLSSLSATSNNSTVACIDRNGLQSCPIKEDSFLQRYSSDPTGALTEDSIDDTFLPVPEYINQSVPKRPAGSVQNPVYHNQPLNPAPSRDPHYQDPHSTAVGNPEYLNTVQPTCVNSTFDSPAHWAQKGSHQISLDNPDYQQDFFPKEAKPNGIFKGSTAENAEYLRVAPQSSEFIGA
T1 sequence (P04626 whole entry): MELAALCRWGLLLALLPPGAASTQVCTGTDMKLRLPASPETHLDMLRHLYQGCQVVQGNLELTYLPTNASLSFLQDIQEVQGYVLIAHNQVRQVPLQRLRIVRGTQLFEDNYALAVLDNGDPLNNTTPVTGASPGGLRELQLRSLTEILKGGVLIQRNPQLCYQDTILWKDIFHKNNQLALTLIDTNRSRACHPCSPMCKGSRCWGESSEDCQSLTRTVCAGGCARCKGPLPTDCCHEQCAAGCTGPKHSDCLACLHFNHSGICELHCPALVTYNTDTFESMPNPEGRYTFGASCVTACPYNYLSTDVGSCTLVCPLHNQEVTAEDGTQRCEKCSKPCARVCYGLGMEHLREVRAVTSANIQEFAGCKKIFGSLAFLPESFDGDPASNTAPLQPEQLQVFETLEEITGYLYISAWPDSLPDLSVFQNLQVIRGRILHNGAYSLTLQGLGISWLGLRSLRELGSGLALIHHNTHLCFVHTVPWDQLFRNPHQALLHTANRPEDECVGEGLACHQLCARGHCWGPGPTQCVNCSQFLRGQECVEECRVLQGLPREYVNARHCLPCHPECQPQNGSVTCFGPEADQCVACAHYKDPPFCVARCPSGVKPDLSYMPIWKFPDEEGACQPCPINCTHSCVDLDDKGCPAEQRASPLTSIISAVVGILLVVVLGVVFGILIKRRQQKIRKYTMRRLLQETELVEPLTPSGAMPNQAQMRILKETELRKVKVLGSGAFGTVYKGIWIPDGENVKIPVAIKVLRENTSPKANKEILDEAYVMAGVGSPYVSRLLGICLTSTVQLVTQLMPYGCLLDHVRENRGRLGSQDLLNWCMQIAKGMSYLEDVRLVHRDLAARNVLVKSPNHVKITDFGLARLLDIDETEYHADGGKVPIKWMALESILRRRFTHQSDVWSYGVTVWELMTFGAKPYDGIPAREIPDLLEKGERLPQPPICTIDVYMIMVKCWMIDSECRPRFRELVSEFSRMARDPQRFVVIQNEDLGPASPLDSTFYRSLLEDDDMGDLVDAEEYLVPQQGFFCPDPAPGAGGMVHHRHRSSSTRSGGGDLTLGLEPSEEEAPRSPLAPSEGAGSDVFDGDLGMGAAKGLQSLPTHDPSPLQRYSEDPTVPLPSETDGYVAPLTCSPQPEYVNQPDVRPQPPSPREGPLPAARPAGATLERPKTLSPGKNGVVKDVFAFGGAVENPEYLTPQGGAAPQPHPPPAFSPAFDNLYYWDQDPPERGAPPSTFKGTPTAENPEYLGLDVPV

With `CN(C)Cc1ccc(-c2cc3ncnc(Nc4ccc(OCc5cccc(F)c5)c(Cl)c4)c3s2)o1` as the compound, how does the IC50 (HFF [1]) read?
Its IC50 is 4460 nM.

And the IC50 [2]?
Its IC50 is 2 nM.

And the IC50 [3]?
Its IC50 is 146 nM.

What about the IC50 (BT-474 [4]) of the same compound?
Its IC50 is 1880 nM.

What about the IC50 (HN5 [5]) of the same compound?
The IC50 was 1220 nM.

`Fc1cccc(COc2ccc(Nc3ncnc4cc(-c5ccc[nH]5)sc34)cc2Cl)c1` was tested. Which IC50 [2] did it give?
Its IC50 is 68 nM.

What about the IC50 (HFF [6]) of the same compound?
Its IC50 is 2370 nM.

And the IC50 [3]?
Its IC50 is 121 nM.

And the IC50 (BT-474 [7])?
Its IC50 is 540 nM.

And the IC50 [8]?
Its IC50 is 826 nM.

What about the IC50 (HN5 [9]) of the same compound?
The IC50 was 570 nM.

How did the IC50 (HFF [1]) turn out when `CS(=O)(=O)CCNCc1ccc(-c2cc3c(Nc4ccc(OCc5cccc(F)c5)c(Cl)c4)ncnc3s2)o1` was run?
The IC50 was 19500 nM.

What about the IC50 [2] of the same compound?
The IC50 was 12 nM.

What about the IC50 [3] of the same compound?
The IC50 was 6 nM.

What about the IC50 (BT-474 [4]) of the same compound?
Its IC50 is 420 nM.

What about the IC50 (HN5 [5]) of the same compound?
The IC50 was 420 nM.

Which results are given for `CN1CCN(Cc2ccc(-c3cc4ncnc(Nc5ccc(OCc6cccc(F)c6)c(Cl)c5)c4s3)o2)CC1` [GW784684X]?
IC50 [2]: 5 nM; IC50 [3]: 250 nM

Which results are given for `CCNCc1ccc(-c2cc3c(Nc4ccc(OCc5cccc(F)c5)c(Cl)c4)ncnc3s2)[nH]1`?
IC50 [2]: 121 nM; IC50 [3]: 111 nM

Which results are given for `CS(=O)(=O)CCNCc1cc(-c2cc3c(Nc4ccc(OCc5cccc(F)c5)c(Cl)c4)ncnc3s2)cs1` [GSK-300014A]?
IC50 [2]: 304 nM; IC50 [3]: 299 nM

Which results are given for `Fc1cccc(COc2ccc(Nc3ncnc4sc(-c5ccco5)cc34)cc2Cl)c1` [GSK-969786A]?
IC50 (HFF [1]): > 30000 nM; IC50 [2]: 15 nM; IC50 [3]: 14 nM; IC50 (BT-474 [4]): > 30000 nM; IC50 (HN5 [5]): > 30000 nM

How did the IC50 (HFF [6]) turn out when `CS(=O)(=O)CCNCc1cc(-c2cc3ncnc(Nc4ccc(OCc5cccc(F)c5)c(Cl)c4)c3s2)co1` was run?
The IC50 was 7950 nM.

What about the IC50 (BT-474 [7]) of the same compound?
Its IC50 is 730 nM.

How did the IC50 [2] turn out when `Fc1cccc(COc2ccc(Nc3ncnc4sc(-c5ccc[nH]5)cc34)cc2Cl)c1` was run?
Its IC50 is 115 nM.

And the IC50 (HFF [6])?
The IC50 was greater than 3000 nM.

And the IC50 [3]?
The IC50 was 203 nM.

What about the IC50 (BT-474 [7]) of the same compound?
Its IC50 is 1980 nM.

What about the IC50 (HN5 [9]) of the same compound?
Its IC50 is 2710 nM.

`CS(=O)(=O)CCNCc1ccc(-c2cc3c(Nc4ccc(OCc5cccc(F)c5)c(Cl)c4)ncnc3s2)s1` was tested. Which IC50 [2] did it give?
Its IC50 is 96 nM.

And the IC50 [3]?
The IC50 was 95 nM.

For `CS(=O)(=O)CCNCc1ccc(-c2ccc3ncnc(Nc4ccc(OCc5cccc(F)c5)c(Cl)c4)c3c2)o1` [LAPATINIB DITOSYLATE], which IC50 (BT-474 [7]) is on record?
The IC50 was 100 nM.

`CS(=O)(=O)CCNCc1ccc(-c2cc3ncnc(Nc4ccc(OCc5cccc(F)c5)c(Cl)c4)c3s2)o1` was tested. Which IC50 (HFF [1]) did it give?
Its IC50 is greater than 30000 nM.

And the IC50 [2]?
The IC50 was 1 nM.

What about the IC50 [3] of the same compound?
Its IC50 is 71 nM.

And the IC50 (BT-474 [4])?
Its IC50 is 420 nM.

And the IC50 (HN5 [5])?
The IC50 was 410 nM.

For `CCNCc1ccc(-c2cc3ncnc(Nc4ccc(OCc5cccc(F)c5)c(Cl)c4)c3s2)[nH]1`, which IC50 [2] is on record?
Its IC50 is 6 nM.

And the IC50 [3]?
The IC50 was 68 nM.

What does the source list for `Fc1cccc(COc2ccc(Nc3ncnc4cc(-c5ccco5)sc34)cc2Cl)c1`?
IC50 (HFF [1]): > 30000 nM; IC50 [2]: 10 nM; IC50 [3]: 709 nM; IC50 (BT-474 [4]): 21200 nM; IC50 (HN5 [5]): 8090 nM

Which IC50 (HFF [1]) does the source give for `Fc1cccc(COc2ccc(Nc3ncnc4sc(-c5cccs5)cc34)cc2Cl)c1` [GW684626B] here?
Its IC50 is 9720 nM.

And the IC50 [2]?
Its IC50 is 9 nM.

What about the IC50 [3] of the same compound?
Its IC50 is 43 nM.

And the IC50 (BT-474 [4])?
Its IC50 is 3220 nM.

What about the IC50 (HN5 [5]) of the same compound?
Its IC50 is 10100 nM.

`OCc1ccc(-c2cc3ncnc(Nc4ccc(OCc5cccc(F)c5)c(Cl)c4)c3s2)o1` was tested. Which IC50 [2] did it give?
The IC50 was 3 nM.

And the IC50 (HFF [6])?
The IC50 was 9390 nM.

And the IC50 [3]?
Its IC50 is 122 nM.

And the IC50 (BT-474 [7])?
The IC50 was 720 nM.

What about the IC50 (HN5 [9]) of the same compound?
Its IC50 is 100 nM.

How did the IC50 [2] turn out when `CN(C)Cc1ccc(-c2cc3ncnc(Nc4ccc(OCc5cccc(F)c5)c(Cl)c4)c3s2)[nH]1` was run?
Its IC50 is 4 nM.

And the IC50 [3]?
Its IC50 is 76 nM.

For `N#CCNCc1ccc(-c2cc3ncnc(Nc4ccc(OCc5cccc(F)c5)c(Cl)c4)c3s2)o1`, which IC50 [3] is on record?
The IC50 was 68 nM.

How did the IC50 [2] turn out when `CN(C)Cc1ccc(-c2cc3c(Nc4ccc(OCc5cccc(F)c5)c(Cl)c4)ncnc3s2)[nH]1` was run?
Its IC50 is 68 nM.

And the IC50 [3]?
Its IC50 is 246 nM.

Which IC50 [2] does the source give for `CS(=O)(=O)CCNCc1cc(-c2cc3ncnc(Nc4ccc(OCc5cccc(F)c5)c(Cl)c4)c3s2)cs1` here?
The IC50 was 3 nM.

What about the IC50 (HFF [6]) of the same compound?
The IC50 was greater than 30000 nM.

What about the IC50 [3] of the same compound?
The IC50 was 31 nM.

What about the IC50 (BT-474 [7]) of the same compound?
Its IC50 is 600 nM.

What about the IC50 (HN5 [9]) of the same compound?
Its IC50 is 100 nM.

Which results are given for `Fc1cccc(COc2ccc(Nc3ncnc4cc(-c5cccs5)sc34)cc2Cl)c1`?
IC50 (HFF [1]): 10700 nM; IC50 [2]: 8 nM; IC50 [3]: 113 nM; IC50 (BT-474 [4]): 5770 nM; IC50 (HN5 [5]): 2190 nM

How did the IC50 [2] turn out when `Fc1cccc(COc2ccc(Nc3ncnc4sc(-c5ccc(CNCc6ccccc6)o5)cc34)cc2Cl)c1` was run?
The IC50 was 54 nM.

And the IC50 [3]?
Its IC50 is 898 nM.

What does the source list for `CS(=O)(=O)CCNCc1ccc(-c2cc3ncnc(Nc4ccc(OCc5cccc(F)c5)c(Cl)c4)c3s2)[nH]1`?
IC50 (HFF [1]): 3730 nM; IC50 [2]: 7 nM; IC50 [3]: 113 nM; IC50 [8]: 431 nM; IC50 (BT-474 [4]): 630 nM; IC50 (HN5 [5]): 770 nM

How did the IC50 [2] turn out when `CS(=O)(=O)CCNCc1ccc(-c2cc3c(Nc4ccc(OCc5cccc(F)c5)c(Cl)c4)ncnc3s2)[nH]1` was run?
Its IC50 is 138 nM.

And the IC50 [3]?
Its IC50 is 153 nM.
